Results: PubChem BioAssay (NCI)
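Cultured in 96-well plates, cells were exposed to test compound for 48 hours across five concentrations. TGI marks complete inhibition of growth.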

What was measured:
Experiment in all cases: NCI-60 cell line screen, 48 h
786-0 renal = tested on: 786-0 renal
A498 renal = tested on: A498 renal
A549 NSCLC = tested on: A549 NSCLC
ACHN renal = tested on: ACHN renal
BT-549 breast = tested on: BT-549 breast
CAKI-1 renal = tested on: CAKI-1 renal
CCRF-CEM leukemia = tested on: CCRF-CEM leukemia
COLO 205 colon = tested on: COLO 205 colon
DU-145 prostate = tested on: DU-145 prostate
EKVX NSCLC = tested on: EKVX NSCLC
HCC-2998 colon = tested on: HCC-2998 colon
HCT-116 colon = tested on: HCT-116 colon
HCT-15 colon = tested on: HCT-15 colon
HL-60(TB) leukemia = tested on: HL-60(TB) leukemia
HOP-62 NSCLC = tested on: HOP-62 NSCLC
HOP-92 NSCLC = tested on: HOP-92 NSCLC
HS 578T breast = tested on: HS 578T breast
HT29 colon = tested on: HT29 colon
IGROV1 ovarian = tested on: IGROV1 ovarian
K-562 leukemia = tested on: K-562 leukemia
KM12 colon = tested on: KM12 colon
LOX IMVI melanoma = tested on: LOX IMVI melanoma
M14 melanoma = tested on: M14 melanoma
MALME-3M melanoma = tested on: MALME-3M melanoma
MCF7 breast = tested on: MCF7 breast
MDA-MB-231 breast = tested on: MDA-MB-231 breast
MDA-MB-435 = tested on: MDA-MB-435
MDA-N = tested on: MDA-N
MOLT-4 leukemia = tested on: MOLT-4 leukemia
NCI-H226 lung = tested on: NCI-H226 lung
NCI-H23 lung = tested on: NCI-H23 lung
NCI-H460 lung = tested on: NCI-H460 lung
NCI-H522 lung = tested on: NCI-H522 lung
NCI/ADR-RES ovarian = tested on: NCI/ADR-RES ovarian
OVCAR-3 ovarian = tested on: OVCAR-3 ovarian
OVCAR-4 ovarian = tested on: OVCAR-4 ovarian
OVCAR-5 ovarian = tested on: OVCAR-5 ovarian
OVCAR-8 ovarian = tested on: OVCAR-8 ovarian
PC-3 prostate = tested on: PC-3 prostate
RPMI-8226 leukemia = tested on: RPMI-8226 leukemia
RXF 393 renal = tested on: RXF 393 renal
SF-268 CNS = tested on: SF-268 CNS
SF-295 CNS = tested on: SF-295 CNS
SF-539 CNS = tested on: SF-539 CNS
SK-MEL-2 melanoma = tested on: SK-MEL-2 melanoma
SK-MEL-28 melanoma = tested on: SK-MEL-28 melanoma
SK-MEL-5 melanoma = tested on: SK-MEL-5 melanoma
SK-OV-3 ovarian = tested on: SK-OV-3 ovarian
SN12C renal = tested on: SN12C renal
SNB-19 CNS = tested on: SNB-19 CNS
SNB-75 CNS = tested on: SNB-75 CNS
SR leukemia = tested on: SR leukemia
SW-620 colon = tested on: SW-620 colon
T-47D breast = tested on: T-47D breast
TK-10 renal = tested on: TK-10 renal
U251 CNS = tested on: U251 CNS
UACC-257 melanoma = tested on: UACC-257 melanoma
UACC-62 melanoma = tested on: UACC-62 melanoma
UO-31 renal = tested on: UO-31 renal

O=c1c2c(no[n+]2[O-])c2ccccc2n1-c1ccccc1
TGI (786-0 renal): 9.97 µM | TGI (A498 renal): 22.2 µM | TGI (A549 NSCLC): 35.1 µM | TGI (ACHN renal): 42.7 µM | TGI (BT-549 breast): 8.56 µM | TGI (CAKI-1 renal): 6.39 µM | TGI (CCRF-CEM leukemia): 7.21 µM | TGI (COLO 205 colon): 20.3 µM | TGI (DU-145 prostate): > 74.2 µM | TGI (EKVX NSCLC): 24.5 µM | TGI (HCC-2998 colon): 20.6 µM | TGI (HCT-116 colon): 6.73 µM | TGI (HCT-15 colon): 8.76 µM | TGI (HL-60(TB) leukemia): 15.3 µM | TGI (HOP-62 NSCLC): 22.5 µM | TGI (HOP-92 NSCLC): 17.6 µM | TGI (HS 578T breast): 39.1 µM | TGI (HT29 colon): 15.5 µM | TGI (IGROV1 ovarian): 10 µM | TGI (K-562 leukemia): > 46.4 µM | TGI (KM12 colon): 22 µM | TGI (LOX IMVI melanoma): 7.28 µM | TGI (M14 melanoma): 8.25 µM | TGI (MALME-3M melanoma): 14.5 µM | TGI (MCF7 breast): 15.6 µM | TGI (MDA-MB-231 breast): 24.8 µM | TGI (MDA-MB-435): 14.6 µM | TGI (MDA-N): 9.56 µM | TGI (MOLT-4 leukemia): 26.6 µM | TGI (NCI-H226 lung): 30.7 µM | TGI (NCI-H23 lung): 5.53 µM | TGI (NCI-H460 lung): 21.4 µM | TGI (NCI-H522 lung): 3.27 µM | TGI (NCI/ADR-RES ovarian): 21.6 µM | TGI (OVCAR-3 ovarian): 19.8 µM | TGI (OVCAR-4 ovarian): > 46.4 µM | TGI (OVCAR-5 ovarian): 21.9 µM | TGI (OVCAR-8 ovarian): 11.1 µM | TGI (PC-3 prostate): 21.4 µM | TGI (RPMI-8226 leukemia): 42.8 µM | TGI (RXF 393 renal): 14.7 µM | TGI (SF-268 CNS): 20.1 µM | TGI (SF-295 CNS): 23.5 µM | TGI (SF-539 CNS): 16 µM | TGI (SK-MEL-2 melanoma): 18.8 µM | TGI (SK-MEL-28 melanoma): 17 µM | TGI (SK-MEL-5 melanoma): 20 µM | TGI (SK-OV-3 ovarian): 21.7 µM | TGI (SN12C renal): 17.2 µM | TGI (SNB-19 CNS): 25 µM | TGI (SNB-75 CNS): 19.2 µM | TGI (SR leukemia): > 27.3 µM | TGI (SW-620 colon): 7.54 µM | TGI (T-47D breast): 23.6 µM | TGI (TK-10 renal): 27.2 µM | TGI (U251 CNS): 16.1 µM | TGI (UACC-257 melanoma): 22 µM | TGI (UACC-62 melanoma): 13.7 µM | TGI (UO-31 renal): 16.6 µM

O=C(O)C(O)C(O)C(O)C(O)CO (stereo not drawn)
TGI (786-0 renal): > 100 µM | TGI (A498 renal): > 100 µM | TGI (A549 NSCLC): > 100 µM | TGI (ACHN renal): > 100 µM | TGI (BT-549 breast): > 100 µM | TGI (CAKI-1 renal): > 100 µM | TGI (CCRF-CEM leukemia): > 100 µM | TGI (COLO 205 colon): > 100 µM | TGI (DU-145 prostate): > 100 µM | TGI (EKVX NSCLC): > 100 µM | TGI (HCC-2998 colon): > 100 µM | TGI (HCT-116 colon): > 100 µM | TGI (HCT-15 colon): > 100 µM | TGI (HL-60(TB) leukemia): > 100 µM | TGI (HOP-62 NSCLC): > 100 µM | TGI (HOP-92 NSCLC): > 100 µM | TGI (HS 578T breast): > 100 µM | TGI (HT29 colon): > 100 µM | TGI (IGROV1 ovarian): > 100 µM | TGI (K-562 leukemia): > 100 µM | TGI (KM12 colon): > 100 µM | TGI (LOX IMVI melanoma): > 100 µM | TGI (M14 melanoma): > 100 µM | TGI (MALME-3M melanoma): > 100 µM | TGI (MCF7 breast): > 100 µM | TGI (MDA-MB-231 breast): > 100 µM | TGI (MDA-MB-435): > 100 µM | TGI (MDA-N): > 100 µM | TGI (MOLT-4 leukemia): > 100 µM | TGI (NCI-H226 lung): > 100 µM | TGI (NCI-H23 lung): > 100 µM | TGI (NCI-H460 lung): > 100 µM | TGI (NCI-H522 lung): > 100 µM | TGI (NCI/ADR-RES ovarian): > 100 µM | TGI (OVCAR-3 ovarian): > 100 µM | TGI (OVCAR-4 ovarian): > 100 µM | TGI (OVCAR-5 ovarian): > 100 µM | TGI (OVCAR-8 ovarian): > 100 µM | TGI (PC-3 prostate): > 100 µM | TGI (RPMI-8226 leukemia): > 100 µM | TGI (RXF 393 renal): > 100 µM | TGI (SF-268 CNS): > 100 µM | TGI (SF-295 CNS): > 100 µM | TGI (SF-539 CNS): > 100 µM | TGI (SK-MEL-2 melanoma): > 100 µM | TGI (SK-MEL-28 melanoma): > 100 µM | TGI (SK-MEL-5 melanoma): > 100 µM | TGI (SK-OV-3 ovarian): > 100 µM | TGI (SN12C renal): > 100 µM | TGI (SNB-19 CNS): > 100 µM | TGI (SNB-75 CNS): > 100 µM | TGI (SR leukemia): > 100 µM | TGI (SW-620 colon): > 100 µM | TGI (T-47D breast): > 100 µM | TGI (TK-10 renal): > 100 µM | TGI (U251 CNS): > 100 µM | TGI (UACC-257 melanoma): > 100 µM | TGI (UACC-62 melanoma): > 100 µM | TGI (UO-31 renal): > 100 µM
